In data set [1] the target is Myd88-ERK1 (Homo sapiens (Human), UniProt P27361). Briefly: HTRF assay of MyD88-ERK1 interaction. The following applies: 6xHis-ERK1 7.5 nM, biotin-MyD88peptide 25 nM; read-out: IC50* (μM) on Myd88-ERK1 in HRTF Assay. Type of data set: binding. The source says:
(§1) [drawing 67] 2-(4-dimethylamino-phenyl)-1H-benzoimidazole-5-carboxylic acid (3-chloro-phenyl)-amide was synthesized from 2-(4-dimethylamino-phenyl)-1H-benzoimidazole-5-carboxylic acid and 3-chloro-phenylamine by following the procedure for example 1. ^1H NMR (400 MHz, DMSO-d6) δ 12.90 (s, 1H), 10.37 (s, 1H), 8.17 (s, 1H), 8.08-7.98 (m, 3H), 7.82-7.73 (m, 2H), 7.61 (d, J=8.3 Hz, 1H), 7.39 (t, J=8.1 Hz, 1H), 7.15 (ddd, J=8.0, 2.1, 0.9 Hz, 1H), 6.91-6.81 (m, 2H), 3.02 (s, 6H). MS m/z (M+H) 390.9. 2/Biological Activity 2-1/In Vitro Determination of Compound Activity by HRTF Assay Principle: In the experiment, recombinant Erk1 and Erk2, tagged with a polyhistidine stretch in their N-terminal part were used. To reproduce the interaction between ERK1/2 and Myd88, a peptide corresponding to amino acids 24-40 of Myd88 was used: biotin-Ahx-[…] with Ahx being aminohexanoic acid as a spacer (biotin-MyD88peptide). This peptide encompassed the interaction motif of Myd88 with the CD domain of ERK1/2. To perform the HTRF assay this peptide was N-terminally labelled with biotin. To detect the interaction between the peptide and Erk1 or Erk2 the following components were used: an antibody directed against the His-tag, labelled with the donor fluorophore (Europium cryptate); The streptavidine protein, labelled with the acceptor XL665 fluorophore directed against the biotin. All the components except Erk1, Erk2 and the peptide were purchased from Cisbio (Condolet, France).
(§2) Homogeneous Time Resolved Fluorescence (HTRF) assay combines two techniques: Fluorescence Resonance Energy Transfer (FRET) and Time Resolved (TR) measurement. In TR-FRET, a transfer of fluorescence between a donor and an acceptor molecule generates a signal that can then be measured. This energy transfer is only possible when both fluorophores are close enough to each other. Therefore, this method can be used to detect protein-protein interaction.
For MyD88-ERK1 interaction the reaction medium contained: 6xHis-ERK1 at 7.5 nM, biotin-MyD88peptide at 25 nM, anti-Histidine-Cryptate antibody at 1.3325 nM and XL665 labeled-Streptavidine at 3.125 nM.
(§3) Concentrations of compounds to be tested ranged from 0.1 μM to 100 μM. Stock solutions of compounds according to the invention were prepared at 10 mM in DMSO. […] The plate was incubated at room temperature for 2 hours and fluorescence was measured using a TECAN Infinite F500 Reader®.
(§4) Results are calculated as the variation of fluorescence (Delta F) between control and samples. Delta F was calculated using the following equation: [(Ratio sample-Ratio of the arithmetic mean of the control)/Ratio of the arithmetic mean of the control]×100 where ratio=(Acceptor fluorescence/Donor fluorescence)×10000. […]
Background: TR-FRET usually uses a lanthanide donor and a delayed reading to cut background.

Data set [2] deals with Myd88-ERK2 (Homo sapiens (Human), UniProt P28482). Briefly: HTRF assay of MyD88-ERK2 interaction. The format is binding. The following applies: GST-ERK2 50 nM, biotin-MyD88pep 50 nM; read-out: IC50* (μM) on Myd88-ERK2 in HRTF Assay.
From the text: as §1, §2
For MyD88-ERK2 interaction the reaction medium contained: GST-ERK2 at 50 nM, biotin-MyD88pep at 50 nM, anti-GST-Cryptate antibody at 0.8 nM and XL665 labeled-Streptavidine at 12.5 nM.
as §3, §4

The subject of data set [3] is ERK1/2. Briefly: Cell-based assay, SRE luciferase reporter in HCT116 p53+/+ cells. Conditions: Homo sapiens, HCT-116, 2 hours pretreatment, 10% FCS stimulation. The text has this: The terms “SRE promoter” refer to “Serum response elements”, which is a DNA sequence (CC(A/T)6GG) that is used upstream of reporter genes and is known to be the binding site of the SRF (Serum response factor) proteins encoded by SRF gene identified by Gene Bank number (Gene ID: 6722, NM_003131.2). To determine the activity of the compounds on ERK1/2, Human Colon Tumor (HCT116) p53+/+ cell line stably transformed to express the luciferase reporter gene under the control of the serum response element (SRE) was used. This cell line was cultured in McCoy's medium supplemented with 10% FBS, 2 mM glutamine, 1% antibiotics and 1 μM of puromycin.
HCT116 p53+/+ SRE luciferase cells were plated in 96-well flat-bottom plate at 20,000/well and incubated at 37° C. for 36 hours. The medium was discarded and replaced by 100 μl of serum free medium for 16 hours. Cells were then pretreated for 2 hours with the compounds according to the invention at various concentrations (from 0.001 μM to 80 μM). Cells were then stimulated by addition of 10% FCS and incubated at 37° C. for four additional hours and the expression of reporter gene was assessed using the One-Glo Luciferase reagent (Promega). Luminescence was quantified after 5 minutes in a TECAN infinite M200 Reader (Männedorf, Switzerland). The results are presented below at paragraph 2-5.
(In general: Reporter assays use an easily measured gene product as a stand-in for the process of interest.)

Data set [4] deals with HCT116 cells. Briefly: Apoptosis assay (Caspase-Glo 3/7). Type of data set: cell-based, Human. The following applies: HCT116 p53+/+ cells, 16 h treatment, DMSO treated cells as control. How it is done:
Cellular apoptosis was measured using the Caspase-Glo® 3/7 assay kit (Promega). To perform this study, HCT116 p53+/+ cells were seeded at a density of 7,000 cell/well in 96-half wells plate and maintained 24 h at 37° C. in McCoy's medium supplemented with 2 mM glutamine, 1% penicillin, 1% of streptomycin and 10% FBS. Cells were then treated with the compounds at various concentrations ranging from 1 μM to 100 μM depending on the compound. The DMSO concentration was normalized at 1% in each well and the cells were incubated for 16 h. Caspase 3/7 activity was monitored using caspase-Glo 3/7 kit according to the manufacturer instructions. Briefly, 50 μL of Caspase-Glo® 3/7 reagent was added in each well and the plates were gently agitated for 30 s and let at room temperature for an additional hour. Luminescence was then measured in a TECAN infinite 200 microplate reader. Results are expressed as the fold induction of caspase 3/7 activation using DMSO treated cells as control. The results are presented on FIGS. 1 to 3.

A value given as a limit tells only on which side of the number the result lay.

Sequence of Myd88-ERK2 (P28482 whole entry): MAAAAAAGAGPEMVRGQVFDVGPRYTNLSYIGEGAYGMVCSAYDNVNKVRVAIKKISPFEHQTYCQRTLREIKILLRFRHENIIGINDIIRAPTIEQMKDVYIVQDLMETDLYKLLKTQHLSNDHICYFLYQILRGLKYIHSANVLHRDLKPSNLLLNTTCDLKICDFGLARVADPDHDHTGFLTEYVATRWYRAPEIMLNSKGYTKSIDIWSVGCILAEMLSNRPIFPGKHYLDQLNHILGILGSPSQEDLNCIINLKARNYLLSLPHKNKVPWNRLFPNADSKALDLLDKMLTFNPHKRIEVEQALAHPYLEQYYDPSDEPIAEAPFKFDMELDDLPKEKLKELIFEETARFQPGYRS
Sequence of Myd88-ERK1 (P27361 whole entry): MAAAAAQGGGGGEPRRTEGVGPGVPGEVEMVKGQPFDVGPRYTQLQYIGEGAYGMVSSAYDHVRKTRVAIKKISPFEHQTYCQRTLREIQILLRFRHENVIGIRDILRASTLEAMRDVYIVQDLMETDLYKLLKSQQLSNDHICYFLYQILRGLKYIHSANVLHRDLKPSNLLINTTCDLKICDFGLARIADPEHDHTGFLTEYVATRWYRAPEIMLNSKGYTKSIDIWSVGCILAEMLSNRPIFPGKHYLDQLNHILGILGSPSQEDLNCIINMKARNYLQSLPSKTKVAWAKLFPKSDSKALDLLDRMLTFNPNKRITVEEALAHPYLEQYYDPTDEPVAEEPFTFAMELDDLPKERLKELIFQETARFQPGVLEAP

With `CN(C)c1ccc(-c2nc3cc(NC(=O)c4ccccc4)ccc3[nH]2)cc1` [Comp. ex., reference compound], the IC50 in data set [1], in data set [2] and in data set [3] was more than 50 µM in each case.

As to `COc1ccc(NC(=O)c2ccc3[nH]c(-c4ccc(N(C)C)cc4)nc3c2)cn1` [Compound 6, 2-(4-Dimethylamino-phenyl)-1H-benzoimidazole-5-carboxylic acid (6-methoxy-pyridin-3-yl)-amide], the IC50 (commonly the point on the concentration scale where inhibition reaches its midpoint) in data set [1] turned out to be 4.44 µM; in data set [2], 2.34 µM; in data set [3], 0.48 µM. For the same compound, the “induction of apoptosis (fold induction of caspase 3/7 activity)” value in data set [4] is “induction of apoptosis”.

In the case of `CCc1ccc(NC(=O)c2ccc3[nH]c(-c4ccc(N(C)C)cc4)nc3c2)cn1` [Compound 7, 2-(4-Dimethylamino-phenyl)-1H-benzoimidazole-5-carboxylic acid (6-ethylpyridin-3-yl)-amide], the figures for the IC50 in data set [1], in data set [2] and in data set [3] were 6.15 µM, 25.5 µM and 0.79 µM, respectively. In addition, the “induction of apoptosis (fold induction of caspase 3/7 activity)” value in data set [4] is listed as “induction of apoptosis”.

With `CN(C)c1ccc(-c2nc3cc(C(=O)Nc4ccncc4)ccc3[nH]2)cc1` [Compound 2, 2-(4-Dimethylamino-phenyl)-1H-benzoimidazole-5-carboxylic acid pyridin-4-ylamide], the IC50 in data set [1] was 8 µM; in data set [2] it was 11.8 µM; in data set [3], 0.32 µM. Further, the “induction of apoptosis (fold induction of caspase 3/7 activity)” value in data set [4] is given as “induction of apoptosis”.

For the origin of these results see patent US12509465B2, “Benzoimidazole derivatives as anticancer agents” (CENTRE LEON BERARD, priority 2016, dated 2025).
